According to patent US7285528B2, “Agonists and antagonists of gonadotropin-releasing hormone-2, and use thereof” (priority 2002, dated 2007):
Where a SMILES comes first, the peptide text is derived from it. [ ]: non-standard residue; d: D form. dPhe(4-Cl) = N[C@H](Cc1ccc(Cl)cc1)C(=O)O; d2Nal = N[C@H](Cc1ccc2ccccc2c1)C(=O)O; dCit = NC(=O)NCCC[C@@H](N)C(=O)O; d3Pal = N[C@H](Cc1cccnc1)C(=O)O; pGlu = O=C1CC[C@@H](C(=O)O)N1

Experiments:
Primate GnRH-2 receptor [1] = experiment: c-fos-luc luciferase activation by agonists, CV-1 cells expressing Primate GnRH-2 receptor; format: cell-based, Primates; details: for Log EC50: log of EC50 (negative values), luciferase activation, average of three independent experiments
Method: Complimentary DNA (cDNA) for a Primate GnRH-2 receptor was obtained from a CV-1 cell genome. […] Plasmids having Primate GnRH-2 receptors where transfected into CV-1 cells. To assay the activity of the receptor, c-fos-luc where a luciferase gene is fused with a c-fos promoter was co-transfected as a probe gene. After 48 hours from transfection, the cells were treated with GnRH-2 agonists and then the activity of luciferase was assayed (Seong et al., Endocrinology vol 144 2003, 454-466). […] Of the GnRH-2 receptors, [[…]]GnRH-2 performed excellently, showing effects about 3 times that of a wild-type ligand, GnRH-2. […] When analogs where the 5th, 7th, and 8th amino acids of [[…]]GnRH-2 are substituted were used, it was observed that their effects were weaker than [[…]]GnRH-2, and therefore it can be seen that it is important to maintain His, Trp, and Tyr that are found at the 5th, 7th, and 8th positions of GnRH-2 as they are (FIG. 3b). Log EC50 values and Emax values of GnRH-2 agonists are average values of experiments that were conducted independently three times. Ratio^a represents the ratio of EC50 values of other GnRH analogs based on EC50 values of GnRH-2.

Primate GnRH-2 receptor [2] = experiment: Inhibition of GnRH-2-induced c-fos-luc luciferase activity, cells expressing Primate GnRH-2 receptor; format: cell-based, Primates; details: for effect on luciferase activity induced by GnRH-2: GnRH-2 and antagonist treated at the same time
Method: Complimentary DNA (cDNA) for a Primate GnRH-2 receptor was obtained from a CV-1 cell genome. […] Plasmids having Primate GnRH-2 receptors where transfected into CV-1 cells. To assay the activity of the receptor, c-fos-luc where a luciferase gene is fused with a c-fos promoter was co-transfected as a probe gene. After 48 hours from transfection, the cells were treated with GnRH-2 agonists and then the activity of luciferase was assayed (Seong et al., Endocrinology vol 144 2003, 454-466). In the same manner as in 2-3 above, Primate GnRH-2 receptors were co-transfected along with c-fos-luc reporter genes, and after 48 hours, GnRH-2 and GnRH-2 antagonists were treated thereinto at the same time and then the effect of GnRH-2 antagonists was observed. […] Log IC50 value by antagonists is an average value of experiments that were conducted independently three times. ND stands for “not detected” which means that there are no inhibitory functions.

bfGnRHR-2 = experiment: Inhibition of GnRH-2-induced IP production, GH3 cells expressing bfGnRHR-2; format: cell-based, bullfrog; details: log of IC50 (negative values); half-maximal inhibition of IP production induced by GnRH-2 (1 nM, 10 nM elsewhere in the source)
Method: (§1) GH3 cell lines were obtained from the Cell Line Bank at the Cancer Research Center, Seoul National University College of Medicine, located in Seoul, Republic of Korea. The GH3 cell lines were infected with retroviruses comprising genes encoding bfGnRHR-1, bfGnRHR-2, and bfGnRHR-3 which are bullfrog GnRH receptors, and rat GnRHR, and cell lines expressing each of these receptors were obtained. The GH3 cells expressing bfGnRHR-1, bfGnRHR-2, bfGnRHR-3, and rat GnRHR were cultured on 12-well plates. After 24 hours, the cells were cultured again for 24 hours in a media containing no inositol, to which H^3-myoinositol was added. The resultant cells were washed with buffer A (140 mM NaCl, 20 mM HEPES, 4 mM KCl, 8 mM D-Glucose, 1 mM MgCl2, 1 mM CaCl2, 1 mg/ml BSA) and then cultured in buffer A containing 10 mM LiCl at 37°C. for 30 minutes. Thereafter, they were treated with GnRH having a suitable concentration, cultured at 37° C. for another 30 minutes, and then the media was eliminated. The cells were treated with 10 mM of ice-cold formic acid to terminate the reaction, and the cell extracts were mixed with Dowex anionic exchange resins. These resins were washed with distilled water, IP was extracted with 1 M ammonium formate/0.1 M formic acid, and cpm (count per minute) was determined.

bfGnRHR-3 [3] = experiment: Inhibition of GnRH-2-induced IP production, GH3 cells expressing bfGnRHR-3; format: cell-based, bullfrog; details: log of IC50 (negative values); half-maximal inhibition of IP production induced by GnRH-2 (1 nM, 10 nM elsewhere in the source)
Method: as §1

bfGnRHR-3 [4] = experiment: Ligand-receptor binding assay, I125-GnRH-2 competition, membranes of GH3 cells expressing bfGnRHR-3; design: species or system bullfrog; details: log of IC50 (negative values); competition with I125-GnRH-2, 4° C., 16 hours
Method: To determine the binding affinity between GnRH and GnRH receptors, GnRH-2 was radiolabeled with I^125. The GH3 cells expressing bfGnRHR-1, bfGnRHR-2, bfGnRHR-3, and rat GnRHR constructed in Example 2-3 above were cultured on 100-mm dishes. After 48 hours, the cells were homogenized to obtain cellular membranes, which were then dissolved in binding buffer (40 mM Tris, pH 7.4, 2 mM MgCl2). 20 μg of membrane proteins were reacted with I^125-GnRH-2 at 4° C. for 16 hours. […] After the reaction was completed, 1^125-GnRH-2 bound to the receptors was filtered using a Brandel harvester, and cpm was measured using a γ-counter.
The GH3 cells expressing bfGnRHR-3 obtained from Example 6-1 above were treated with l^125GnRH-2 and GnRH-2 agonists and antagonists at various concentrations to determine the binding affinity of GnRH-2 agonists and antagonists toward the receptors.

| Molecule | Log EC50 (Primate GnRH-2 receptor [1]) | effect on luciferase activity induced by GnRH-2 (Primate GnRH-2 receptor [2]) | also measured |
| --- | --- | --- | --- |
| pGlu-His-Trp-Ser-Leu-D-Ala-Trp-Tyr-Pro-Gly-NH2 ([pGlu]HWSL[dA]WYPG-NH2; SMILES CC(C)C[C@H](NC(=O)[C@H](CO)NC(=O)[C@H](Cc1c[nH]c2ccccc12)NC(=O)[C@H](Cc1c[nH]cn1)NC(=O)[C@@H]1CCC(=O)N1)C(=O)N[C@H](C)C(=O)N[C@@H](Cc1c[nH]c2ccccc12)C(=O)N[C@@H](Cc1ccc(O)cc1)C(=O)N1CCC[C@H]1C(=O)NCC(N)=O) [[Leu^5, D-Ala^6]GnRH-2] | −7.35 ± 0.12 | – | – |
| pGlu-His-Trp-Ser-His-D-Ala-Leu-Tyr-Pro-Gly-NH2 ([pGlu]HWSH[dA]LYPG-NH2; SMILES CC(C)C[C@H](NC(=O)[C@@H](C)NC(=O)[C@H](Cc1c[nH]cn1)NC(=O)[C@H](CO)NC(=O)[C@H](Cc1c[nH]c2ccccc12)NC(=O)[C@H](Cc1c[nH]cn1)NC(=O)[C@@H]1CCC(=O)N1)C(=O)N[C@@H](Cc1ccc(O)cc1)C(=O)N1CCC[C@H]1C(=O)NCC(N)=O) [[D-Ala^6, Leu^7]GnRH-2] | −7.95 ± 0.10 | – | – |
| CC(=O)N[C@H](Cc1ccc2ccccc2c1)C(=O)N[C@H](Cc1ccc(Cl)cc1)C(=O)N[C@H](Cc1cccnc1)C(=O)N[C@@H](CO)C(=O)N[C@@H](Cc1c[nH]cn1)C(=O)N[C@H](CCCNC(N)=O)C(=O)N[C@@H](Cc1c[nH]c2ccccc12)C(=O)N[C@@H](Cc1ccc(O)cc1)C(=O)N1CCC[C@H]1C(=O)N[C@H](C)C(N)=O [Trptorelix-2, Ac-D2Nal-(4Cl)D-Phe-D-3Pal-Ser-His-DCit-Trp-Tyr-Pro-DAla-NH2] (Ac-[d2Nal][dPhe(4-Cl)][d3Pal]SH[dCit]WYP[dA]-NH2) | – | reduced in a concentration-dependent manner | Log IC50 (Primate GnRH-2 receptor [2]; log of IC50 (negative values), reporter c-fos-luc, GnRH-2-induced luciferase, average of three experiments, ND = not detected, no inhibitory functions): −6.19 ± 0.12 |
| [D-Ala^6]GnRH-1: the agonist of GnRH-1 | −6.38 ± 0.10 | – | effect / sensitivity in luciferase activation (Primate GnRH-2 receptor [1]; compared with GnRH-2 or [D-Ala^6]GnRH-2): very low sensitivity as compared with GnRH-2 |
| Ac-D2Nal-(4Cl)D-Phe-D-3Pal-Ser-Tyr-DCit-Trp-Leu-Pro-DAla-NH2 (Ac-[d2Nal][dPhe(4-Cl)][d3Pal]SY[dCit]WLP[dA]-NH2; SMILES CC(=O)N[C@H](Cc1ccc2ccccc2c1)C(=O)N[C@H](Cc1ccc(Cl)cc1)C(=O)N[C@H](Cc1cccnc1)C(=O)N[C@@H](CO)C(=O)N[C@@H](Cc1ccc(O)cc1)C(=O)N[C@H](CCCNC(N)=O)C(=O)N[C@@H](Cc1c[nH]c2ccccc12)C(=O)N[C@@H](CC(C)C)C(=O)N1CCC[C@H]1C(=O)N[C@H](C)C(N)=O) [Trptorelix-3] | – | no effect | – |
| pGlu-His-Trp-Ser-His-D-Ala-Tyr-Trp-Pro-Gly-NH2 ([pGlu]HWSH[dA]YWPG-NH2; SMILES C[C@@H](NC(=O)[C@H](Cc1c[nH]cn1)NC(=O)[C@H](CO)NC(=O)[C@H](Cc1c[nH]c2ccccc12)NC(=O)[C@H](Cc1c[nH]cn1)NC(=O)[C@@H]1CCC(=O)N1)C(=O)N[C@@H](Cc1ccc(O)cc1)C(=O)N[C@@H](Cc1c[nH]c2ccccc12)C(=O)N1CCC[C@H]1C(=O)NCC(N)=O) [[D-Ala^6, Tyr^7, Trp^8]GnRH-2] | −7.57 ± 0.13 | – | – |
| p-Glu-His-Trp-Ser-His-D-Lys-Trp-Tyr-Pro-Gly-NH2 ([pGlu]HWSH[dK]WYPG-NH2; SMILES NCCCC[C@@H](NC(=O)[C@H](Cc1c[nH]cn1)NC(=O)[C@H](CO)NC(=O)[C@H](Cc1c[nH]c2ccccc12)NC(=O)[C@H](Cc1c[nH]cn1)NC(=O)[C@@H]1CCC(=O)N1)C(=O)N[C@@H](Cc1c[nH]c2ccccc12)C(=O)N[C@@H](Cc1ccc(O)cc1)C(=O)N1CCC[C@H]1C(=O)NCC(N)=O) [[D-Lys^6]GnRH-2] | −8.57 ± 0.11 | – | – |
| pGlu-His-Trp-Ser-Tyr-D-Ala-Trp-Leu-Pro-Gly-NH2 ([pGlu]HWSY[dA]WLPG-NH2; SMILES CC(C)C[C@H](NC(=O)[C@H](Cc1c[nH]c2ccccc12)NC(=O)[C@@H](C)NC(=O)[C@H](Cc1ccc(O)cc1)NC(=O)[C@H](CO)NC(=O)[C@H](Cc1c[nH]c2ccccc12)NC(=O)[C@H](Cc1c[nH]cn1)NC(=O)[C@@H]1CCC(=O)N1)C(=O)N1CCC[C@H]1C(=O)NCC(N)=O) [[Tyr^5, D-Ala^6, Leu^8]GnRH-2] | −7.90 ± 0.24 | – | – |
| CC(=O)N[C@H](Cc1ccc2ccccc2c1)C(=O)N[C@H](Cc1ccc(Cl)cc1)C(=O)N[C@H](Cc1cccnc1)C(=O)N[C@@H](CO)C(=O)N[C@@H](Cc1ccc(O)cc1)C(=O)N[C@H](CCCNC(N)=O)C(=O)N[C@@H](CC(C)C)C(=O)N[C@@H](CCCNC(=N)N)C(=O)N1CCC[C@H]1C(=O)N[C@H](C)C(N)=O [Cetrorelix, Ac-D-2Nal-(4Cl)-D-Phe-D-3Pal-Ser-Tyr-D-Cit-Leu-Arg-Pro-D-Ala-NH2, reference compound] (Ac-[d2Nal][dPhe(4-Cl)][d3Pal]SY[dCit]LRP[dA]-NH2) | – | no effect | Log IC50 (bfGnRHR-2): −6.43 ± 0.11; Log IC50 (bfGnRHR-3 [3]): −6.28 ± 0.13; Binding affinity (log IC50 value) (bfGnRHR-3 [4]): −7.11 ± 0.08 |
